Where only a bound is given, the exact number is not on record here.

Among the data in ChEMBL document CHEMBL1143017, “Structural assignment of poecillastrins B and C, macrolide lactams from the deep-water Caribbean sponge Poecillastra species” (J Nat Prod, 2007) are IC50 values, retold here.

The nature of this assay: Cytotoxicity against human LOX cells. Type of assay: cell-based.

Compound `COC1/C=C/C=C/CC/C=C/C=C/C(=O)NC(C(O)C(=O)O)C(=O)OC(C(NC(=O)C(C)C(O)CCC(C)C(O)/C(C)=C/C(C)(C)C(O)C(CC(C)C)NC(=O)/C=C/C(C)(C)C(=O)C(C)C(O)C(C)C)C(C)O)C(C)C(O)C/C=C(\C)C(O)C(C)/C=C(\C)C(O)C(C)C(O)CC2CC(C)CC1O2` (configuration not stated) [POECILLASTRIN B] displayed an IC50 of less than 1 µg/mL.
Compound `COC1/C=C/C=C/CC/C=C/C=C/C(=O)NC(C(O)C(=O)O)C(=O)OC(C(NC(=O)C(C)C(O)CCC(C)C(O)/C(C)=C/C(C)C(O)C(CC(C)C)NC(=O)/C=C/C(C)(C)C(=O)C(C)C(O)C(C)C)C(C)O)C(C)C(O)C/C=C(\C)C(O)C(C)/C=C(\C)C(O)C(C)C(O)CC2CC(C)CC1O2` (configuration not stated) [POECILLASTRIN C] gave an IC50 of less than 1 µg/mL.

One may read the IC50 as the midpoint of a concentration-inhibition curve.
